Test results from BindingDB's records for patent US20230312550 (Astrazeneca, 2023).
pIC50: −log10 of the molar value.

Legend:
Dipeptidyl peptidase 2 = Dipeptidyl peptidase 2 (Homo sapiens, UniProt Q9UHL4); experiment: hDPP7 Inhibition Assay
Protocol: Table 4: Compounds were tested in a biochemical inhibition assay using human dipeptidylpeptidase 7 (hDPP7) enzyme at 15 nM FAC (BPS Bioscience, #80070) and the substrate Ala-Pro-amino-methylcoumarin (BPS Bioscience, #80305) at 5 μM FAC. The enzymatic reactions were conducted in duplicate at rt for 30 min in 50 μL DPP assay buffer (BPS Bioscience, #80300). Compound solutions (in DMSO) at 10 CR, 3 fold dilution series were prepared in assay buffer ten-fold higher than the final concentration, and 5 μL of the dilution was added to a 50 μL reaction so that the highest compound concentration was 100 μM FAC and the concentration of DMSO was 1% in all wells. The plates were read on a Tecan Infinite M1000 microplate reader with excitation 340 nm and emission 460 nm. Data were analyzed in Graph Pad Prism. IC50 values were determined by plotting % inhibition versus log compound concentration and using a one site dose response model. Raw data signals were normalized using 1% DMSO as 0% control and no enzyme as 100% inhibitor control.

Prolyl endopeptidase FAP = biological target: T1, Prolyl endopeptidase FAP (Homo sapiens, UniProt Q12884); experiment: hFAP Binding Assay; details: for kon: read-out: kon (M-1-s-1)
T1 sequence (Q12884 whole entry): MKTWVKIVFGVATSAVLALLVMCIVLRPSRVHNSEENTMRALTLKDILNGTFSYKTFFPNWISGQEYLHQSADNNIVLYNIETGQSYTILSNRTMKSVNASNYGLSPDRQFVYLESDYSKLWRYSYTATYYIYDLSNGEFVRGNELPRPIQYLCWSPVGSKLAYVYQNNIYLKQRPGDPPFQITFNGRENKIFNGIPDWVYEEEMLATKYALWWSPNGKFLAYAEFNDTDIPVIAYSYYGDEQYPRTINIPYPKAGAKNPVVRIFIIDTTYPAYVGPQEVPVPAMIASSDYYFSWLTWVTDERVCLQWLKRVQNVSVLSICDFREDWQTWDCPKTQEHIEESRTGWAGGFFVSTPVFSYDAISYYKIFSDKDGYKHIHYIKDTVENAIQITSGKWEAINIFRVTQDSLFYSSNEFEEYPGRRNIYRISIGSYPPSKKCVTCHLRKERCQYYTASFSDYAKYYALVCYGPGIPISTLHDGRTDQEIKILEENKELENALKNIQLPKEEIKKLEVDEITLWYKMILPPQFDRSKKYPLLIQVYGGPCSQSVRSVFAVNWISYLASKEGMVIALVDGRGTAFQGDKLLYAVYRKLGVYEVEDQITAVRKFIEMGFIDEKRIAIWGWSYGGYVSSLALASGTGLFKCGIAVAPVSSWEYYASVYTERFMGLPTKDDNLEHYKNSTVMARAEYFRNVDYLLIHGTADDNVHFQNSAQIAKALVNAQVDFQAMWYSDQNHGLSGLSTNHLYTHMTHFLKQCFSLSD
Protocol: Table 1: Compounds were tested in a direct binding assay using 8K surface plasmon resonance biosensor (GE Healthcare) at 20° C. Immobilization of hFAP (M39-A757) on a CMD200M sensor chip (Xantec) was performed using standard amine coupling procedure in immobilization buffer (10 mM HEPES, 150 mM NaCl, 0.05% Tween20, pH 7.4). The surface was washed with 10 mM NaOH, 1M NaCl before being activated with EDC/NHS (GE Healthcare), followed by immobilization of hFAP (in 10 mM Acetate pH 5.0). Finally, the surface was deactivated by ethanolamine. Immobilization levels of hFAP were around 4000-6000 RU. The reference spot was treated as described, omitting the injection of hFAP. Compound concentration series were injected over the immobilized protein in increasing concentrations (2-500 nM) using single cycle kinetics in running buffer (20 mM TRIS, 150 mM NaCl, 0.05% Tween20, 1% DMSO, pH 7.4).

| Structure (SMILES) | pIC50 (Dipeptidyl peptidase 2) | koff (Prolyl endopeptidase FAP) [s⁻¹] | kon (Prolyl endopeptidase FAP) [M⁻¹ s⁻¹] |
| --- | --- | --- | --- |
| Cc1cc(N2CCOCC2)cc2c(C(=O)NCC(=O)N3CSC[C@H]3C#N)ccnc12 [US20230312550, Example 9] | < 4.00 |  |  |
| N#C[C@@H]1CSCN1C(=O)CNC(=O)c1ccnc2c(Cl)cc(N3CCOCC3)cc12 [US20230312550, Example 180] |  | 0.00095 | 560000 |
| CC1(C)CCCN(c2ccc3nccc(C(=O)NCC(=O)N4CSC[C@H]4C#N)c3c2)C1=O [US20230312550, Example 15] |  | 4.6e-05 | 490000 |
| N#C[C@@H]1CSCN1C(=O)CNC(=O)c1ccnc2ccc(-n3ccc(-c4ccccc4)c3)cc12 [US20230312550, Example 218] |  | 0.00032 | 670000 |
| N#C[C@@H]1CSCN1C(=O)CNC(=O)c1ccnc2ccc(N3CC(OC(F)(F)F)C3)cc12 [US20230312550, Example 132] |  | 0.00014 | 270000 |
| COCC1(C)CN(c2ccc3nccc(C(=O)NCC(=O)N4CSC[C@H]4C#N)c3c2)C1 [US20230312550, Example 29] |  | 6.1e-05 | 1.1e+06 |
| CC1(O)CCN(c2ccc3nccc(C(=O)NCC(=O)N4CSC[C@H]4C#N)c3c2)CC1 [US20230312550, Example 190] |  | 3.6e-05 | 1.8e+06 |
| CC1(C)CN(c2ccc3nccc(C(=O)NCC(=O)N4CSC[C@H]4C#N)c3c2)CCC1(F)F [US20230312550, Example 38] |  | 7.8e-05 | 520000 |
| N#C[C@@H]1CSCN1C(=O)CNC(=O)c1ccnc2ccc(N3CC(F)(CF)C3)cc12 [US20230312550, Example 157] |  | 0.00012 | 1.9e+06 |
| C[C@@H]1COC[C@H](C)N1c1cc2c(C(=O)NCC(=O)N3CSC[C@H]3C#N)ccnc2cc1Br [US20230312550, Example 100] |  | 0.0022 | 3e+06 |
| N#C[C@@H]1CSCN1C(=O)CNC(=O)c1ccnc2ccc(N3CC4(CC(F)C4)C3)cc12 [US20230312550, Example 155] |  | 5e-05 | 3.1e+06 |
| CC1(CF)CCN(c2ccc3nccc(C(=O)NCC(=O)N4CSC[C@H]4C#N)c3c2)CC1 [US20230312550, Example 37] |  | 3e-05 | 1e+06 |
| N#C[C@@H]1CSCN1C(=O)CNC(=O)c1ccnc2ccc(N3C[C@H](F)[C@@H](F)C3)cc12 [US20230312550, Example 213] |  | 0.00017 | 4.4e+06 |
| N#C[C@@H]1CSCN1C(=O)CNC(=O)c1ccnc2ccc(N3CCOC(F)(F)C3)cc12 [US20230312550, Example 4] |  | 9.4e-05 | 1.2e+06 |
| CC1(C)CN(c2ccc3nccc(C(=O)NCC(=O)N4CSC[C@H]4C#N)c3c2)C(=O)O1 [US20230312550, Example 13] |  | 7.6e-05 | 9.2e+06 |

Second part, the molecule after the results:

| pIC50 (Dipeptidyl peptidase 2) | koff (Prolyl endopeptidase FAP) [s⁻¹] | kon (Prolyl endopeptidase FAP) [M⁻¹ s⁻¹] | Structure (SMILES) |
| --- | --- | --- | --- |
|  | 0.00028 | 1.4e+07 | CO[C@@H]1CCN(c2ccc3nccc(C(=O)NCC(=O)N4CSC[C@H]4C#N)c3c2)C1 [US20230312550, Example 161] |
|  | 4.3e-05 | 1.3e+06 | N#C[C@@H]1CSCN1C(=O)CNC(=O)c1ccnc2ccc(N3CC(N4CCOCC4)C3)cc12 [US20230312550, Example 122] |
|  | 0.00011 | 1.4e+06 | CC1CN(c2ccc3nccc(C(=O)NCC(=O)N4CSC[C@H]4C#N)c3c2)C1 [US20230312550, Example 25] |
|  | 0.00023 | 6.2e+06 | C[C@H]1CCN(c2ccc3nccc(C(=O)NCC(=O)N4CSC[C@H]4C#N)c3c2)C1 [US20230312550, Example 54] |
|  | 0.00015 | 1.3e+06 | C[C@@H]1CN(c2ccc3nccc(C(=O)NCC(=O)N4CSC[C@H]4C#N)c3c2)CCCO1 [US20230312550, Example 64] |
|  | 0.00019 | 6.8e+06 | N#C[C@@H]1CSCN1C(=O)CNC(=O)c1ccnc2ccc(N3CC[C@@H](F)C3)cc12 [US20230312550, Example 52] |
|  | 8.9e-05 | 1.4e+06 | CC1(C)CCN(c2ccc3nccc(C(=O)NCC(=O)N4CSC[C@H]4C#N)c3c2)C1 [US20230312550, Example 48] |
|  | 0.00014 | 1.8e+06 | CC[C@H]1COCCN1c1ccc2nccc(C(=O)NCC(=O)N3CSC[C@H]3C#N)c2c1 [US20230312550, Example 106] |
